“Also recorded” adds a separate entry of the source.
What was measured:
[1] = tested on: SCC-25 squamous cell skin cancer cell line; test: MTS cell viability after pretreatment and oxidative stress, SCC skin cancer cells; assay type: cell-based, human; conditions: 500 μM sulindac 24 hr pretreatment, then TBHP 2 hr (FIG. 1)
Protocol: (§1) SCC-25 is a human squamous cell carcinoma cell line developed by J G Rheinwald [Rheinwald, 1981]. […] The cells were maintained in minimum essential medium (Eagle) supplemented with 2 mM L-glutamine, Earle's BSS containing 1.5 g/L sodium bicarbonate, 0.1 mM non-essential amino acids, 1.0 mM sodium pyruvate and 10% fetal bovine serum.
The experimental approach was to pretreat SCC cells with sulindac for 24 hr prior to exposure to TBHP for 2 hr. Sulindac (Sigma; S-8139) was freshly prepared as a 1M stock solution in 1M Tris.Cl, pH 8.0. SCC cells were suspended in culture medium containing 10% fetal bovine serum at a cell density of 6×10^5 cells/ml. Cell suspensions containing 500 μM sulindac or no sulindac (Control) were plated in 96 well microtiter plates with a total of 6×10^4 cells per well. The plates were incubated for 24 hr at 37° C. in a 5% CO2 incubator. The culture medium was then removed and the cells washed once with fresh culture medium without serum. After removal of the wash solution, fresh culture medium without serum that contained the indicated final concentration of TBHP was added to the cells for 2 hrs. Serum was omitted from the medium during the two-hour exposure to TBHP since TBHP may be rapidly depleted in the presence of serum.

[2] = tested on: RKO colon cancer cell line; test: MTS cell viability after pretreatment and oxidative stress, RKO colon cancer cells; assay type: cell-based, human; conditions: 500 μM sulindac 24 hr pretreatment, then TBHP 2 hr (FIG. 4)
Protocol: as §1, with “RKO” for “SCC-25”, “colon” for “squamous cell”, “Michael Brattain [Brattain, 1984].” for “J G Rheinwald [Rheinwald, 1981].”
Experiments were performed with the RKO colon cancer cells that were pretreated with 500 μM sulindac using TBHP.

[3] = tested on: WM-266-4 Melanoma skin cell line; test: MTS cell viability after pretreatment and oxidative stress, melanoma cells; assay type: cell-based, human; conditions: 500 μM sulindac 24 hr pretreatment, then TBHP 2 hr (FIG. 8)
[4] = tested on: normal human epidermal keratinocytes; test: Cell viability after sulindac pretreatment and oxidative stress, normal keratinocytes; assay type: cell-based
Protocol: Experiments using similar methods were performed with primary human neonatal foreskin epidermal keratinocytes. These cells were of low-passage and purified using previously accepted protocols (provided by J. Li, University of Miami, Fl.). Cells were grown in 50% Keratinocyte-SFM media [Gibco-Invitrogen (Catalog #17005-042) supplemented with human recombinant Epidermal Growth Factor 1-53 (EGF 1-53) and Bovine Pituitary Extract (BPE)] with 50% EpiLife medium [Cascade Biologics (Catalog #Epi-500-Ca)] supplemented with purified bovine serum albumin, purified bovine transferrin, hydrocortisone, recombinant human insulin-like growth factor type-1 (rhIGF-1), prostaglandin E2 (PGE2), and recombinant human epidermal growth factor (rhEGF).
Normal human epidermal keratinocyte cells were incubated for 24 hr in the presence or absence of 500 μM sulindac. The medium was removed and the cells washed once with fresh medium followed by addition of medium containing the indicated concentration of (a) TBHP or (b) arsenic trioxide. After a 2 hr incubation with TBHP or a 24-hour incubation with arsenic trioxide at 37° C., the cells were assayed for viability as described.

[5] = tested on: CCD-18Co normal human colon cell line; test: MTS cell viability after sulindac pretreatment and TBHP, normal colon cells; assay type: cell-based; conditions: 500 μM sulindac 24 hr, then TBHP 2 hr (FIG. 11)
Protocol: (§2) The cells were maintained in minimum essential medium (Eagle) supplemented with 2 mM L-glutamine, Earle's BSS containing 1.5 g/L sodium bicarbonate, 0.1 mM non-essential amino acids, 1.0 mM sodium pyruvate and 10% fetal bovine serum.

[6] = tested on: MRC-5 normal human lung cell line; test: MTS cell viability after sulindac pretreatment and TBHP, normal lung cells; assay type: cell-based; conditions: 500 μM sulindac 24 hr, then TBHP 2 hr (FIG. 12)
Protocol: as §2

[7] = tested on: Primary neonatal rat cardiac myocytes; test: Killing by peroxide after sulindac, normal cardiac cells; assay type: cell-based; conditions: sulindac followed by peroxide (hydrogen peroxide and TBHP)
Text: (§3) Primary neonatal rat cardiac myocytes and ARPE-19, a human retinal pigment epithelial cell line that is not fully transformed, were used in similar experiments with sulindac followed by peroxide.

[8] = tested on: ARPE-19, a human retinal pigment epithelial cell line; test: Killing by peroxide after sulindac, retinal cells; assay type: cell-based; conditions: sulindac followed by peroxide (hydrogen peroxide and TBHP)
Text: as §3

[9] = tested on: normal cells; test: Constant non-toxic TBHP with escalating sulindac (FIG. 16), normal cells; assay type: cell-based; conditions: escalating sulindac 500 μM-1500 μM
[10] = tested on: cancer cells; test: Constant non-toxic TBHP with escalating sulindac (FIG. 16), cancer cells; assay type: cell-based; conditions: escalating sulindac 500 μM-1500 μM
[11] = tested on: Lung cancer cells; test: Intracellular ROS levels, lung cancer cells; assay type: cell-based; conditions: combination of sulindac and TBHP vs either treatment alone
[12] = tested on: Normal lung cells; test: Intracellular ROS levels, normal lung cells; assay type: cell-based; conditions: combination of sulindac and TBHP
[13] = Time course of sulindac pre-incubation before addition of the oxidant; assay type: cell-based
Protocol: Sulindac was pre-incubated for various times prior to the addition of the oxidant. […] There was no difference in the results with longer time courses such as 48-72 hours. After the pre-incubation with sulindac, the cells were washed and the oxidant was added with or without sulindac.

[14] = tested on: SCC-25 squamous cell skin cancer cell line; test: MTS cell viability after pretreatment and oxidative stress, SCC skin cancer cells; assay type: cell-based, human; conditions: sulindac alone, concentrations below 1 mM, MTS assay
[15] = tested on: Normal HEK skin cells (human neonatal epidermal keratinocytes); test: Intracellular ROS by indicator dye fluorescence, normal HEK skin cells
Protocol: Experimental conditions: Normal HEK skin cells plated onto 6-well plates at cell density of 60-70% confluence. Sulindac (0.5 mM)×24 hours (cell density remained about the same) followed by TBHP×2 hours followed by ROS indicator dye (5 μM)×1 hour (Table 1).
Human neonatal epidermal keratinocytes were plated into 6-well plates at a cell density of 60-70% confluence. The cultures were pretreated with sulindac (500 uM) for 34 hours followed by the addition of different concentrations of TBHP for 2 hours. During this period of time, the cell density in the 6-well plates remained the same (there was no increase in cell proliferation). This was followed by the addition of the ROS indicator dye.

[16] = tested on: SCC skin cancer cells; test: Intracellular ROS by indicator dye fluorescence, SCC skin cancer cells
Protocol: SCC skin cancer cells were plated onto 6-well plates at a cell density of 50-60% confluence. The cultures were pretreated with sulindac (500 uM) for 24 hours followed by the addition of TBHP (100 uM) for two hours. During this period of time, the cell density in the 6-well plates increased to 80-90% confluent.

[17] = tested on: precancerous growths and/or BCC's; test: Topical sulindac gel followed by hydrogen peroxide solution in patients; conditions: applied alone to the skin condition
[18] = tested on: lung carcinoma cell line designated A549; test: MTS cell viability after pretreatment and oxidative stress, lung cancer cells
Protocol: Cell viability was determined by the [sequence] 96®-Aqueous One Cell Proliferation Assay (Promega) according to the manufacturer's instructions. The assay utilizes a novel tetrazolium compound (3-(4,5-dimethylthiazol-2-yl)-5-(3-carboxymethoxyphenyl)-2-(4-sulfophenyl)-2H-tetrazolium; MTS) and an electron-coupling reagent (phenazine ethosulfate; PES). Metabolically active cells convert the MTS to a water-soluble formazan by the action of cellular dehydrogenases. The amount of formazan produced is measured by absorbance at 490 nm using a colorimetric microtiter plate reader (BIORAD; Model 2550). Absorbance is directly proportional to the number of viable cells.
Experiments using similar methods were performed with a lung carcinoma cell line designated A549. […] Cells were grown in Ham's F12K medium supplemented with final concentrations of 2 mM L-glutamine, 1.6 g/L sodium bicarbonate and 10% fetal bovine serum. Cultures were maintained between 6×10^3-6×10^4 cells/cm^2 in standard tissue culture flasks. The protocol for pretreatment of cells with 500 μM sulindac followed by a two hour exposure to various concentrations of TBHP was the same as that described for the RKO colon cancer cells.
Following a 24 hr pretreatment with 500 μM sulindac, the cells were washed once to remove the excess sulindac before exposure to TBHP for 2 hr.

CC1=C(CC(=O)O)c2cc(F)ccc2/C1=C\c1ccc([S+](C)[O-])cc1 (racemic) [sulindac, Sulindac]
killing of SCC carcinoma cells by TBHP [1]: enhanced the killing | killing of RKO carcinoma cells by TBHP [2]: enhanced the killing | killing of Melanoma cells by TBHP [3]: enhanced the killing | viability of normal human epidermal keratinocytes, TBHP ([4]; 500 μM sulindac 24 hr, then TBHP 2 hr (FIG. 10A)): no significant effect | viability of normal human epidermal keratinocytes, arsenic trioxide ([4]; 500 μM sulindac 24 hr, then arsenic trioxide 24 hr (FIG. 10B)): no significant effect | TBHP concentrations with protective effect (enhanced resistance to oxidative stress) ([4]; in combination with sulindac, effect lost above 400 μM TBHP): 50 to 400 µM | effect on oxidative stress by TBHP, normal colon cells [5]: provided protection from oxidative stress | effect on oxidative stress by TBHP, normal lung cells [6]: provided protection from oxidative stress | killing of normal cardiac cells by peroxide [7]: no enhanced killing | killing of retinal cells by peroxide [8]: no enhanced killing | effect on normal cells [9]: protective effect | effect on cancer cells [10]: enhanced killing | intracellular ROS levels, lung cancer cells [11]: significantly higher levels of ROS | intracellular ROS levels, normal lung cells [12]: lower levels of ROS | minimum pre-incubation time with sulindac to see an effect [13]: ≥ 6 h | pre-incubation time with sulindac giving optimum effects [13]: 18 to 24 h | toxicity of sulindac: effect on cell viability [14]: no detectable effect on cell viability | % Cells with ROS Uptake by Fluorescence ([15]; Table 1, Sul alone, 0.5 mM 24 hours): 2% | % Cells containing ROS ([15]; Table 4, Sul 500 uM alone): 2% | level of ROS uptake in normal HEK cells when combined with TBHP ([15]; sulindac combined with TBHP vs sulindac or TBHP alone): no significant effect | % Cells with ROS Uptake by Fluorescence ([16]; Table 2, Sul 0.5 mM 24 hours and/or TBHP 100 μM 2 hours): 3% | % Cells containing ROS ([16]; Table 3, Sul 500 μM 24 hours and/or TBHP 100 μM 2 hours): 3% | number of spindle cells in the culture ([16]; compared to untreated controls): tends to increase the number of spindle cells | ROS uptake in SCC skin cancer cells, sulindac in combination with TBHP ([16]; sulindac 0.5 mM 24 hours then TBHP 100 μM 2 hours): geometrically enhances the levels of ROS uptake | ROS levels in SCC skin cancer cells, agent alone ([16]; sulindac 500 uM or TBHP 100 uM alone): enhances the levels of ROS uptake; also recorded: enhanced the ROS levels | effect on the precancerous or cancerous growth when applied alone [17]: no effect | cell viability of lung cancer cells after exposure to TBHP ([18]; 500 μM sulindac 24 hr pretreatment, then TBHP 2 hr (FIG. 6)): marked decrease in cell viability | sensitivity of lung cancer cells to killing by H2O2 ([18]; 500 μM sulindac pretreatment (FIG. 7)): differentially sensitive to killing | viability of cells pretreated with sulindac ([18]; 1.5-2.0 mM TBHP, 2 hr, 500 μM sulindac pretreatment): at background levels | killing effect in all cancer cell studies ([18]; FIG. 15, 500 μM sulindac, 250 μM sulindac sulfone): most potent killing effect | H2O2 range in which difference in viability is highly significant (P<0.001) ([18]; sulindac-treated vs untreated cells): 2.5 to 5.0 mM
